Experimental data from patent US20140193802A1, “IDENTIFICATION OF AN ALTERED THERAPEUTIC SUSCEPTIBILITY TO ANTI-HCMV COMPOUNDS AND OF A RESISTANCE AGAINST ANTI-HCMV COMPOUNDS” (priority 2012, published 2014).
Where two headings read alike, the source gives them in different places.

How the values were obtained:
Assay type in all cases: cell-based, human cytomegalovirus (HCMV)
[1] = test system: HCMV AD169 mutant rAIC246-5 (UL56 R369M); experiment: CPE-RA, letermovir-selected mutant; details: for EC50: Human betaherpesvirus 5, AD169, rAIC246-5 (UL56 R369M), CPE reduction assay, mean ± SD
Experimental: (§1) HCMV Cytopathic Effect Reduction Assay (CPE-RA)
(§2) CPE-RAs were performed basically as described elsewhere (HCMV replication assay). In brief, the addition of 2 μl test compound of 50, 5, 0.5, 0.05, 0.005, and 0.0005 mM DMSO stock solutions to 100 μl cell culture medium in duplicate was followed by serial 2-fold dilutions in 96-well microtiter plates. Each well was supplemented with 150 μl of either a suspension of 1×10^4 NHDF cells mixed with cell-free HCMV (multiplicity of infection (MOI), 0.03) or a suspension of 1×10^4 to 3×10^4 HCMV-infected and uninfected NHDF cells (MOI, 0.001 to 0.002). Non-infected and non-treated cells served as controls on each plate. Final compound concentrations ranged between 250 and 0.00005 μM. Plates were incubated for 6 to 7 days at 37° C. or until the virus control reached 100% CPE. A mixture containing 20% Giemsa stain (Merck) and 5% formalin solution (Merck) was added to the wells for fixation and staining. After extensive washing, plates were dried at 56° C. followed by visual evaluation using an overhead microscope (plaque magnifier; Tecnorama Zürich). Each assay was performed at least in triplicate, and standard deviations were calculated. The assay plate data were used to calculate the EC50 (CPE-RA), i.e., the concentration of drug that inhibits the CPE by 50% compared with an untreated virus-infected control.
(§3) Drug-resistant HCMV AD169 mutants were selected by the single-step selection method or by serial passage of the virus in the presence of increasing concentration of Letermovir. Briefly, 5×10^3 AD169-infected NHDF cells/well (MOI, 0.03 PFU/cell) were seeded into the wells of 30 96-well microtiter plates. The infection was allowed to proceed under the exposure of 50 nM Letermovir (˜10×EC50) until a CPE developed in one or more of the compound-treated wells (indicative of resistant virus breakthrough). Non-infected and non-treated cells served as controls on each plate. Mutant virus amplification was accomplished after cultures achieved maximum CPE by the passage of cell-free supernatant virus in the presence of 50 nM Letermovir. The resultant Letermovir-resistant progeny virus mutants were plaque purified three times by limiting dilutions in the presence of Letermovir. The stability of resistance was tested by serially passaging plaque-purified viruses without selective pressure (8 to 10 times). The resistant phenotype of the mutants was confirmed by CPE reduction assays.

[2] = test system: HCMV AD169 mutant rAIC246-3 (UL56 C325Y); experiment: CPE-RA, letermovir-selected mutant; details: for EC50: Human betaherpesvirus 5, AD169, rAIC246-3 (UL56 C325Y), CPE reduction assay, mean ± SD
Experimental: as §1, §2, §3

[3] = test system: HCMV AD169 mutant rAIC246-9 (UL56 R369G); experiment: CPE-RA, letermovir-selected mutant; details: for EC50: Human betaherpesvirus 5, AD169, rAIC246-9 (UL56 R369G), CPE reduction assay, mean ± SD
Experimental: as §1, §2, §3

[4] = test system: HCMV AD169 mutant rAIC246-2 (UL56 R369S); experiment: CPE-RA, letermovir-selected mutant; details: for EC50: Human betaherpesvirus 5, AD169, rAIC246-2 (UL56 R369S), CPE reduction assay, mean ± SD
Experimental: as §1, §2, §3

[5] = test system: RV-HG UL56-V231L; experiment: GFP-RA, marker transfer mutant; details: for EC50: Human betaherpesvirus 5, RV-HG UL56-V231L, fluorescence reduction assay, mean ± SD, read-out: EC50
Experimental: (§4) HCMV Fluorescence Reduction Assay (GFP-RA)
(§5) The susceptibilities of recombinant HCMV laboratory strains expressing GFP were determined by a GFP-based fluorescence reduction assay. For standard assays, 1.5×10^4 NHDF cells/well were cultured in black 96-well plates (Greiner Bio-One, Germany) and infected with either HCMV-GFP (MOI, 0.1) or RV-HG (MOI, 0.2 to 0.5). After virus adsorption, the virus inoculum was replaced with 200 μl fresh medium. Thereafter, 100 μl medium containing the test compounds was added to wells of horizontal row G, followed by serial 3-fold dilutions up to row A. All drug concentrations were tested at least in duplicate. Wells of the horizontal row H served as the virus control. Plates were incubated at 37° C. for 7 days. The medium was replaced by 200 μl PBS, and GFP units (GFPU) were determined by a charge-coupled-device-camera-based fluorescence detector (FluoBox; Bayer Technology Services GmbH, Leverkusen, Germany), which captures 96 images simultaneously. Drug effects were calculated as a percentage of reduction in GFPU in the presence of each drug concentration compared to the GFPU determined in the absence of drug. EC50 and EC90 values (drug concentrations producing 50% and 90% reduction in GFPU) were calculated using nonlinear regression curve fit with a variable slope. GraphPad Prism 3.02 or 4.0 software (GraphPad Software Inc., La Jolla, Calif.) was used for all analyses.
(§6) The HCMV AD169-derived bacterial artificial chromosome (BAC) pHG served as the backbone for the construction of the mutant viruses. The markerless introduction of point mutations into pHG was done using a two-step recombination protocol according to the en passant method. Briefly, a recombination fragment containing the I-SceI-AphAI cassette from plasmid pEPKan-S was obtained by PCR using primers containing ˜60 bp of homology to the intended integration site in ORF UL56 of BAC pHG and ˜20 bp specific for pEPKan-S. This fragment was electroporated into Escherichia coli GS1783 that harbored the pHG BAC. […] After successful kanamycin selection, all non-HCMV sequences were removed by an intrabacterial ISceI digest and a subsequent second Red recombination, resulting in the scarless repair of the mutated UL56 gene in the background of BAC pHG. The integrity of the generated BACs was confirmed by restriction enzyme digestion and sequencing. To reconstitute virus mutants, the recombinant BACs were transfected into permissive MRC5 cells. At least two independent virus clones per mutation were generated and evaluated.

[6] = test system: RV-HG UL56-L241P/R369S; experiment: GFP-RA, marker transfer mutant; details: for EC50: Human betaherpesvirus 5, RV-HG UL56-L241P/R369S, fluorescence reduction assay, mean ± SD, read-out: EC50
Experimental: as §4, §5, §6

[7] = test system: RV-HG UL56-C325Y; experiment: GFP-RA, marker transfer mutant; details: for EC50: Human betaherpesvirus 5
Experimental: as §4, §5, §6

| Compound | EC50 [1] [µM] | EC50 [2] [µM] | EC50 [3] [µM] | EC50 [4] [µM] | EC50 [5] [µM] | EC50 [6] [µM] | EC50 [7] [µM] | Resistance index (RI) = letermovir-EC50 mutant virus/letermovir-EC50 wild-type virus ([1]; rAIC246-5 vs AD169) | Resistance index (RI) = letermovir-EC50 mutant virus/letermovir-EC50 wild-type virus ([2]; rAIC246-3 vs AD169) | Resistance index (RI) = letermovir-EC50 mutant virus/letermovir-EC50 wild-type virus ([3]; rAIC246-9 vs AD169) | Resistance index (RI) = letermovir-EC50 mutant virus/letermovir-EC50 wild-type virus ([4]; rAIC246-2 vs AD169) | Resistance index (RI) = EC50 indicated RV-HG mutant/EC50 RV-HG wt ([5]; RV-HG UL56-V231L vs RV-HG wt) | Resistance index (RI) = EC50 indicated RV-HG mutant/EC50 RV-HG wt ([6]; RV-HG UL56-L241P/R369S vs RV-HG wt) | EC50 ([7]; RV-HG UL56-C325Y, fluorescence reduction assay, mean ± SD, read-out: EC50) [µM] | Resistance index (RI) = EC50 indicated RV-HG mutant/EC50 RV-HG wt ([7]; RV-HG UL56-C325Y vs RV-HG wt) |
| --- | --- | --- | --- | --- | --- | --- | --- | --- | --- | --- | --- | --- | --- | --- | --- |
| Nc1nc(O)c2ncn(COC(CO)CO)c2n1 [Ganciclovir] | 5 ± 0.4 | 2.4 ± 2.5 | 1.7 ± 0.2 | 4 ± 0.9 | 0.72 ± 0.24 | 2.86 ± 1.16 | 2.11 ± 0.71 |  |  |  |  |  |  |  |  |
| COc1cccc(N2CCN(C3=Nc4c(F)cccc4[C@H](CC(=O)O)N3c3cc(C(F)(F)F)ccc3OC)CC2)c1 [Letermovir, (S)-{8-fluoro-2-[4-(3-methoxyphenyl)-1-piperazinyl]-3-[2-methoxy-5-(trifluoromethyl)phenyl]-3,4-dihydro-4-quinazolinyl}acetic acid] | 0.11 ± 0.01 | 27 ± 3.27 | 0.06 ± 0.04 | 0.37 ± 0.07 | 0.02 ± 0.0047 | 5.26 |  | 19 | 4801 | 11 | 66 | 5 | 1776 | 26.4 ± 8.5 | 8910 |
